In patent US10428044B2, “3-amino-1,5,6,7-tetrahydro-4H-indol-4-ones” (Bayer Pharma Aktiengesellschaft, priority 2014, dated 2019):

Target: (recombinant) catalytic domain of human Bub1 (amino acids 704-1085) (Homo sapiens (Human), UniProt O43683)
Experiment: Bub1 kinase assay (TR-FRET)
Format: biochemical
Settings: ATP 10 μM final, peptide substrate 1 μM final, 60 min at 22° C., read-out: Biological Assay: Bub1 kinase assay median IC50
Experimental: Examples were tested in selected biological assays one or more times. When tested more than once, data are reported as either average values or as median values, wherein • the average value, also referred to as the arithmetic mean value, represents the sum of the values obtained divided by the number of times tested, and • the median value represents the middle number of the group of values when ranked in ascending or descending order. If the number of values in the data set is odd, the median is the middle value. If the number of values in the data set is even, the median is the arithmetic mean of the two middle values.
To this end, 100-fold concentrated compound solutions (in DMSO) were previously prepared by serial dilution (1:3.4) of 2 mM stocks in a clear low volume 384-well source microtiter plate (Greiner Bio-One, Frickenhausen, Germany), from which 50 nl of compounds were transferred into a black low volume test microtiter plate from the same supplier. […] The resulting mixture (5 μL final volume) was incubated at 22° C. during 60 min., and the reaction was stopped by the addition of 5 μL of an aqueous EDTA-solution (50 mM EDTA, in 100 mM HEPES pH 7.5 and 0.2% (w/v) bovine serum albumin) which also contained the TR-FRET detection reagents (0.2 μM streptavidin-XL665 [Cisbio Bioassays, Codolet, France] and 1 nM anti-phosho-Serine antibody [Merck Millipore, cat. #35-002] and 0.4 nM LANCE EU-W1024 labeled anti-mouse IgG antibody [Perkin-Elmer, product no. AD0077, alternatively a Terbium-cryptate-labeled anti-mouse IgG antibody from Cisbio Bioassays can be used]). The stopped reaction mixture was further incubated 1 h at 22° C. in order to allow the formation of complexes between peptides and detection reagents. Subsequently, the amount of product was evaluated by measurement of the resonance energy transfer from the Eu-chelate-antibody complex recognizing the Phosphoserine residue to the streptavidin-XL665 bound to the biotin moiety of the peptide. […] The data were normalised using two sets of control wells for high- (=enzyme reaction without inhibitor=0%=Minimum inhibition) and low- (=all assay components without enzyme=100%=Maximum inhibition) Bub1 activity. IC50 values were calculated by fitting the normalized inhibition data to a 4-parameter logistic equation (Minimum, Maximum, IC50, Hill; Y=Max+(Min−Max)/(1+(X/IC50)Hill)).

Chain of (recombinant) catalytic domain of human Bub1 (amino acids 704-1085) (O43683 704-1085): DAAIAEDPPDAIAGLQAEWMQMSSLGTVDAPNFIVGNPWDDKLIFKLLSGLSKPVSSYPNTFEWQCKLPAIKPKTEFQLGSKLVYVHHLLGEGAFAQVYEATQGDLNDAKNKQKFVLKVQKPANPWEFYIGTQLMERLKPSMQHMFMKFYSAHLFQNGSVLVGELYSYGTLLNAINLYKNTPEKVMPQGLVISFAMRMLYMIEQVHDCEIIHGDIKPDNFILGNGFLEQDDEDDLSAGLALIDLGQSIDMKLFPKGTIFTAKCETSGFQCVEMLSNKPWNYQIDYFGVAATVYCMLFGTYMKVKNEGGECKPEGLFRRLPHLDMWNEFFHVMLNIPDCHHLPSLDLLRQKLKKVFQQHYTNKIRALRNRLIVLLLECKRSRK

Structure (SMILES)	IC50 [nM]
CC1(C)CC(=O)c2c([nH]c(-c3cc[n+](CCCO)cc3)c2Nc2ccccc2)C1 [Example 191, 4-[6,6-dimethyl-4-oxo-3-(phenylamino)-4,5,6,7-tetrahydro-1H-indol-2-yl]-1-(3-hydroxypropyl)pyridinium iodide]	326
O=C1CCCc2[nH]c(-c3ccnc(N(C(=O)C4CC4)C(=O)C4CC4)c3)c(Nc3ccccc3)c21 [Example 163, N-(cyclopropylcarbonyl)-N-{4-[4-oxo-3-(phenylamino)-4,5,6,7-tetrahydro-1H-indol-2-yl]pyridin-2-yl}cyclopropanecarboxamide]	126
COC(C)c1cccc(Nc2c(-c3ccncc3)[nH]c3c2C(=O)CC(C)(C)C3)c1 (centres unmarked) [Example 156, 3-{[3-(1-methoxyethyl)phenyl]amino}-6,6-dimethyl-2-(pyridin-4-yl)-1,5,6,7-tetrahydro-4H-indol-4-one]	743
CC(C)(CF)C(=O)Nc1cc(-c2[nH]c3c(c2Nc2ccccc2)C(=O)CCC3)ccn1 [Example 263, 3-fluoro-2,2-dimethyl-N-{4-[4-oxo-3-(phenylamino)-4,5,6,7-tetrahydro-1H-indol-2-yl]pyridin-2-yl}propanamide]	140
Cn1nccc1CC(=O)Nc1cc(-c2[nH]c3c(c2Nc2ccccc2)C(=O)CCC3)ccn1 [Example 292, 2-(1-methyl-1H-pyrazol-5-yl)-N-{4-[4-oxo-3-(phenylamino)-4,5,6,7-tetrahydro-1H-indol-2-yl]pyridin-2-yl}acetamide]	340
CC1(C)CC(=O)c2c([nH]c(-c3ccncc3)c2Nc2ccc(-c3ccccc3)cc2)C1 [Example 414, 3-(biphenyl-4-ylamino)-6,6-dimethyl-2-(pyridin-4-yl)-1,5,6,7-tetrahydro-4H-indol-4-one]	> 20000
CC1(C)CC(=O)c2c([nH]c(-c3ccncc3)c2Nc2cccc(OCCO)c2)C1 [Example 106, 3-{[3-(2-hydroxyethoxy)phenyl]amino}-6,6-dimethyl-2-(pyridin-4-yl)-1,5,6,7-tetrahydro-4H-indol-4-one]	5350

Now those with a lower IC50, led by results:

IC50 [nM]	Structure (SMILES)
44.3	Cc1cc(Nc2c(-c3ccncc3)[nH]c3c2C(=O)CC(C)(C)C3)ccc1F [Example 81, 3-[(4-fluoro-3-methylphenyl)amino]-6,6-dimethyl-2-(pyridin-4-yl)-1,5,6,7-tetrahydro-4H-indol-4-one]
58	CC1(C)CC(=O)c2c([nH]c(-c3ccnc(N)c3)c2Nc2ccccc2)C1 [Example 122, 2-(2-aminopyridin-4-yl)-6,6-dimethyl-3-(phenylamino)-1,5,6,7-tetrahydro-4H-indol-4-one]
58.8	O=C1CCCc2[nH]c(-c3ccncc3OCCO)c(Nc3ccccc3)c21 [Example 459, 2-[3-(2-hydroxyethoxy)pyridin-4-yl]-3-(phenylamino)-1,5,6,7-tetrahydro-4H-indol-4-one]
61.6	O=C(CCc1ccccc1)Nc1cc(-c2[nH]c3c(c2Nc2ccccc2)C(=O)CCC3)ccn1 [Example 235, N-{4-[4-oxo-3-(phenylamino)-4,5,6,7-tetrahydro-1H-indol-2-yl]pyridin-2-yl}-3-phenylpropanamide]
84.2	CC1(C)CC(=O)c2c([nH]c(-c3ccncc3)c2Nc2ccc3cc[nH]c3c2)C1 [Example 68, 3-(1H-indol-6-ylamino)-6,6-dimethyl-2-(pyridin-4-yl)-1,5,6,7-tetrahydro-4H-indol-4-one]
4.04	CC(C)C1CC(=O)c2c([nH]c(-c3ccncc3)c2Nc2ccccc2)C1 (single isomer, unassigned) [Example 17, 3-(phenylamino)-6-(propan-2-yl)-2-(pyridin-4-yl)-1,5,6,7-tetrahydro-4H-indol-4-one]
4.38	O=C(Nc1cc(-c2[nH]c3c(c2Nc2ccccc2)C(=O)CCC3)ccn1)c1cnn(Cc2ccccc2)c1 [Example 449, 1-benzyl-N-{4-[4-oxo-3-(phenylamino)-4,5,6,7-tetrahydro-1H-indol-2-yl]pyridin-2-yl}-1H-pyrazole-4-carboxamide]
